Measurements from patent US20100016232A1, “Treatment Of Inflammatory Diseases With Mammal Beta Defensins” (Novozymes A/S, priority 2008, published 2010).
Marks after values point to notes of the source that are not given here. Where no end group is shown, it is not given here.

Legend:
[1] = tested on: IL-10 secretion from PBMC; assay: IL-10 secretion from PBMC, ELISA; format: cell-based, human
Protocol: Peripheral blood was drawn from healthy volunteers (with approval from the relevant ethical committee in Denmark). Heparinized blood was diluted 1/1 v/v with RPMI and were subjected to Ficoll density centrifugation within 2 h of drawing. Plasma was collected from the top from individual donors and was kept on ice until it was used at 2% in the culture medium (autologous culture medium). Isolated PBMC were resuspended in autologous culture medium and seeded in 96-well culture plates with 255.000 cells per well in a total of 200 μl. […] The concentrations used for stimulation were optimized on 3 different donors in initial experiments, for LPS two different concentrations were used to be sure to be on a cytokine level that is possible to modulate. In some experiments PBMC were treated with Dexamethason and Indomethacin alone and together with LPS or LTA as a control on downregulation of inflammatory cytokines. The supernatants were collected after incubation at 37° C. for 24 hours, and stored at −80° C. until cytokine measurement. Viability was measured by Alamar Blue (Biosource, DALL 1100) in all experiments and in some cases also by MTS (Promega) according to manufacturer's instruction and was in some experiments also judged by counting of the cells by a Nucleocounter.
(§1) Cytokine production in supernatants was measured by flow cytometry with a human inflammation cytometric bead array (CBA) according to manufacturer's instructions (BD) on a FACSarray flow cytometer. The following cytokines were measured: IL-8, IL-1β, IL-10, TNF, IL-12 p70, IL-6. In some experiments, cytokines were measured by ELISA kits from R&D systems (IL-10, TNF-α, IL-1β) according to the manufacturer' instruction.
In Tables 6, 7 and 8, supernatants from another donor were analysed for cytokines by ELISA instead of by a cytometric bead array by flowcytometry and here the same were observed, although the sensitivity of the assay is lower and the detection limit much higher and therefore the effects were not as significant.

[2] = tested on: TNF production in supernatants from immature dendritic cells; assay: TNF production, immature dendritic cells (MUTZ-3 derived); format: cell-based, human
Protocol: (§2) To generate a dendritoid cell line, the human myeloid leukaemia cell lines MUTZ-3 (1×10^5 cells/ml) was differentiated for 7 days in the presence of rhGM-CSF (150 ng/ml) and rhIL-4 (50 ng/ml) into immature DCs. Medium was exchanged every 2-3 days.
as §1

[3] = tested on: DSS-induced colitis in the mouse; assay: 10-day DSS-induced colitis, Disease Activity Index (Example 6); format: in vivo; set-up: key: clinical Disease Activity Index (stool, bleeding, weight loss)
Protocol: Daily clinical assessment of DSS-treated animals was carried out, with the calculation of a validated clinical Disease Activity Index (DAI) ranging from 0 to 4 according to the following parameters: stool consistency, presence or absence of rectal bleeding and weight loss:
Example 6 was carried out essentially as described in Example 5. The differences are indicated below.
Animals were divided into 9 experimental groups.
The animals in group F received one dose i.v. and another dose s.c. (12 hours after the i.v. dose) of the corresponding test item for 10 consecutive days.
The animals in group G received one dose every two days of the corresponding test item for 10 consecutive days.
Methylprednisolone was given orally at a dose of 1 mg/kg (group H) and 10 mg/kg (group J) in a dosing volume of 5 ml/kg body weight, once daily for 10 consecutive days.

[4] = tested on: IL-10, dendritic cells; assay: IL-10 from dendritic cells (MUTZ-3 derived) stimulated with LPS or LTA; format: cell-based, human; settings: dendritic cells stimulated with hBD2 and LPS or hBD2 and LTA; results not shown
Protocol: as §2, §1

[5] = tested on: IL-1β and IL-8 and IL-6, dendritic cells; assay: Cytokines from dendritic cells stimulated with a cytokine cocktail; format: cell-based, human; settings: cytokine cocktail together with hBD2 vs cocktail alone, results not shown
From the text: Obviously no effect on TNF could be analyzed, due to stimulation with TNF-α (results not shown).

hBD2: human beta defensin 2, SEQ ID NO:2; produced recombinantly in E. coli (Example 1); hBD2 of Tables 16-18 was prepared by chemical synthesis (GIGDPVTCLKSGAICHPVFCPRRYKQIGTCGLPGTKCCKKP; ends and bridges not checked; cysteine pairing not given here; listed as Homo sapiens)
IL-10 ([1]; LPS 0.6 ng/ml, hBD2 10 μg/ml): 0.04 ng/mL | IL-10 ([1]; LPS 0.6 ng/ml, hBD2 100 μg/ml): 0.14 ng/mL | IL-10 ([1]; LPS 20 ng/ml, hBD2 10 μg/ml): 0.34 ng/mL | IL-10 ([1]; LPS 20 ng/ml, hBD2 100 μg/ml): 0.46 ng/mL | TNF ([2]; LPS 1.5 μg/ml, hBD2 1 μg/ml): 18.04 pg/mL | TNF ([2]; LPS 1.5 μg/ml, hBD2 10 μg/ml): 13.8 pg/mL | TNF ([2]; LPS 1.5 μg/ml, hBD2 100 μg/ml): 7.66 pg/mL | TNF ([2]; LTA 1.5 μg/ml, hBD2 1 μg/ml): 0.00 pg/mL | TNF ([2]; LTA 1.5 μg/ml, hBD2 10 μg/ml): 2.76 pg/mL | TNF ([2]; LTA 1.5 μg/ml, hBD2 100 μg/ml): 5.22 pg/mL | TNF ([2]; Medium, hBD2 1 μg/ml): 4.64 pg/mL | TNF ([2]; Medium, hBD2 10 μg/ml): 1.89 pg/mL | TNF ([2]; Medium, hBD2 100 μg/ml): 0.00 pg/mL | DAI score, mean ([3]; Group B, 1 mg/kg i.v., Day 1): 0.00 | DAI score, mean ([3]; Group B, 1 mg/kg i.v., Day 2): 0.10 | DAI score, mean ([3]; Group B, 1 mg/kg i.v., Day 3): 0.20 | DAI score, mean ([3]; Group B, 1 mg/kg i.v., Day 4): 0.40 | DAI score, mean ([3]; Group B, 1 mg/kg i.v., Day 5): 0.30 | DAI score, mean ([3]; Group B, 1 mg/kg i.v., Day 6): 2.30* | DAI score, mean ([3]; Group B, 1 mg/kg i.v., Day 7): 4.40* | DAI score, mean ([3]; Group B, 1 mg/kg i.v., Day 8): 6.89 | DAI score, mean ([3]; Group B, 1 mg/kg i.v., Day 9): 5.00* | DAI score, mean ([3]; Group B, 1 mg/kg i.v., Day 10): 5.78* | DAI score, mean ([3]; Group C, 0.1 mg/kg i.v., Day 1): 0.00 | DAI score, mean ([3]; Group C, 0.1 mg/kg i.v., Day 2): 0.44 | DAI score, mean ([3]; Group C, 0.1 mg/kg i.v., Day 3): 0.89 | DAI score, mean ([3]; Group C, 0.1 mg/kg i.v., Day 4): 0.56 | DAI score, mean ([3]; Group C, 0.1 mg/kg i.v., Day 5): 0.78 | DAI score, mean ([3]; Group C, 0.1 mg/kg i.v., Day 6): 1.56** | DAI score, mean ([3]; Group C, 0.1 mg/kg i.v., Day 7): 4.13* | DAI score, mean ([3]; Group C, 0.1 mg/kg i.v., Day 8): 5.43* | DAI score, mean ([3]; Group C, 0.1 mg/kg i.v., Day 9): 6.29* | DAI score, mean ([3]; Group C, 0.1 mg/kg i.v., Day 10): 6.86 | DAI score, mean ([3]; Group D, 0.01 mg/kg i.v., Day 1): 0.00 | DAI score, mean ([3]; Group D, 0.01 mg/kg i.v., Day 2): 0.00 | DAI score, mean ([3]; Group D, 0.01 mg/kg i.v., Day 3): 0.30 | DAI score, mean ([3]; Group D, 0.01 mg/kg i.v., Day 4): 0.40 | DAI score, mean ([3]; Group D, 0.01 mg/kg i.v., Day 5): 1.60 | DAI score, mean ([3]; Group D, 0.01 mg/kg i.v., Day 6): 2.70 | DAI score, mean ([3]; Group D, 0.01 mg/kg i.v., Day 7): 6.50 | DAI score, mean ([3]; Group D, 0.01 mg/kg i.v., Day 8): 6.20* | DAI score, mean ([3]; Group D, 0.01 mg/kg i.v., Day 9): 4.60*** | DAI score, mean ([3]; Group D, 0.01 mg/kg i.v., Day 10): 5.20** | DAI score, mean ([3]; Group E, 0.001 mg/kg i.v., Day 1): 0.00 | DAI score, mean ([3]; Group E, 0.001 mg/kg i.v., Day 2): 0.00 | DAI score, mean ([3]; Group E, 0.001 mg/kg i.v., Day 3): 0.10 | DAI score, mean ([3]; Group E, 0.001 mg/kg i.v., Day 4): 0.20 | DAI score, mean ([3]; Group E, 0.001 mg/kg i.v., Day 5): 0.40 | DAI score, mean ([3]; Group E, 0.001 mg/kg i.v., Day 6): 3.40 | DAI score, mean ([3]; Group E, 0.001 mg/kg i.v., Day 7): 7.11 | DAI score, mean ([3]; Group E, 0.001 mg/kg i.v., Day 8): 8.56 | DAI score, mean ([3]; Group E, 0.001 mg/kg i.v., Day 9): 5.89** | DAI score, mean ([3]; Group E, 0.001 mg/kg i.v., Day 10): 6.67 | DAI score, mean ([3]; Group F, 0.1 mg/kg twice daily i.v. + s.c., Day 1): 0.00 | DAI score, mean ([3]; Group F, 0.1 mg/kg twice daily i.v. + s.c., Day 2): 0.30 | DAI score, mean ([3]; Group F, 0.1 mg/kg twice daily i.v. + s.c., Day 3): 0.70 | DAI score, mean ([3]; Group F, 0.1 mg/kg twice daily i.v. + s.c., Day 4): 0.70 | DAI score, mean ([3]; Group F, 0.1 mg/kg twice daily i.v. + s.c., Day 5): 0.60 | DAI score, mean ([3]; Group F, 0.1 mg/kg twice daily i.v. + s.c., Day 6): 0.70*** | DAI score, mean ([3]; Group F, 0.1 mg/kg twice daily i.v. + s.c., Day 7): 3.50** | DAI score, mean ([3]; Group F, 0.1 mg/kg twice daily i.v. + s.c., Day 8): 4.00*** | DAI score, mean ([3]; Group F, 0.1 mg/kg twice daily i.v. + s.c., Day 9): 2.90*** | DAI score, mean ([3]; Group F, 0.1 mg/kg twice daily i.v. + s.c., Day 10): 4.50*** | DAI score, mean ([3]; Group G, 0.1 mg/kg i.v. every 2. day, Day 1): 0.00 | DAI score, mean ([3]; Group G, 0.1 mg/kg i.v. every 2. day, Day 2): 0.20 | DAI score, mean ([3]; Group G, 0.1 mg/kg i.v. every 2. day, Day 3): 0.40 | DAI score, mean ([3]; Group G, 0.1 mg/kg i.v. every 2. day, Day 4): 0.50 | DAI score, mean ([3]; Group G, 0.1 mg/kg i.v. every 2. day, Day 5): 0.50 | DAI score, mean ([3]; Group G, 0.1 mg/kg i.v. every 2. day, Day 6): 2.90 | DAI score, mean ([3]; Group G, 0.1 mg/kg i.v. every 2. day, Day 7): 6.50 | DAI score, mean ([3]; Group G, 0.1 mg/kg i.v. every 2. day, Day 8): 8.70 | DAI score, mean ([3]; Group G, 0.1 mg/kg i.v. every 2. day, Day 9): 7.50 | DAI score, mean ([3]; Group G, 0.1 mg/kg i.v. every 2. day, Day 10): 6.56 | IL-10 [4]: induced | IL-1β and IL-8 and IL-6 [5]: downregulating effect
